In ChEMBL document CHEMBL2440076, “New triarylpyrazoles as broad-spectrum anticancer agents: design, synthesis, and biological evaluation” (Eur J Med Chem, 2013):
pIC50: −log10 of the molar value.

Tests used:
[1] = tested on: M14; test: Growth inhibition of human M14 cells assessed as cell growth at 5X10'-5 M after 48 hrs by sulforhodamine B assay; type: functional; details: M14, 48 h, read-out: Activity
[2] = tested on: U-251; test: Growth inhibition of human U251 cells assessed as cell growth at 5X10'-5 M after 48 hrs by sulforhodamine B assay; type: functional; details: U-251, 48 h, read-out: Activity
[3] = tested on: SF-295; test: Growth inhibition of human SF295 cells assessed as cell growth at 5X10'-5 M after 48 hrs by sulforhodamine B assay; type: functional; details: SF-295, 48 h, read-out: Activity
[4] = tested on: SF-268; test: Growth inhibition of human SF268 cells assessed as cell growth at 5X10'-5 M after 48 hrs by sulforhodamine B assay; type: functional; details: SF-268, 48 h, read-out: Activity
[5] = tested on: HCT-116; test: Growth inhibition of human HCT116 cells assessed as cell growth at 5X10'-5 M after 48 hrs by sulforhodamine B assay; type: functional; details: HCT-116, 48 h, read-out: Activity
[6] = tested on: MCF7; test: Growth inhibition of human MCF7 cells assessed as cell growth at 5X10'-6 M after 48 hrs by sulforhodamine B assay; type: functional; details: MCF7, 48 h, read-out: Activity
[7] = tested on: HL-60(TB); test: Growth inhibition of human HL-60(TB) cells assessed as cell growth at 5X10'-9 M after 48 hrs by sulforhodamine B assay; type: functional; details: HL-60, 48 h, read-out: Activity
[8] = tested on: CAKI-1; test: Growth inhibition of human CAKI-1 cells assessed as cell growth at 10 uM after 48 hrs by sulforhodamine B assay; type: functional; details: CAKI-1, 48 h, read-out: Activity
[9] = tested on: MOLT-4; test: Growth inhibition of human MOLT4 cells after 48 hrs by sulforhodamine B assay; type: functional; details: MOLT-4, 48 h; for CC50: read-out: LC50 (the source's name)
[10] = tested on: RPMI-8226; test: Growth inhibition of human RPMI8226 cells after 48 hrs by sulforhodamine B assay; type: functional, cell-based; details: RPMI-8226, 48 h; for CC50: read-out: LC50 (the source's name)
[11] = tested on: HL-60(TB); test: Growth inhibition of human HL-60(TB) cells after 48 hrs by sulforhodamine B assay; type: functional; details: HL-60, 48 h; for CC50: read-out: LC50 (the source's name)
[12] = tested on: RXF 393; test: Growth inhibition of human RXF393 cells assessed as cell growth at 10 uM after 48 hrs by sulforhodamine B assay; type: functional; details: RXF 393, 48 h, read-out: Activity
[13] = tested on: UACC-257; test: Growth inhibition of human UACC257 cells assessed as cell growth at 10 uM after 48 hrs by sulforhodamine B assay; type: functional; details: UACC-257, 48 h, read-out: Activity
[14] = tested on: NCI-H226; test: Growth inhibition of human NCI-H226 cells assessed as cell growth at 10 uM after 48 hrs by sulforhodamine B assay; type: functional; details: NCI-H226, 48 h, read-out: Activity
[15] = tested on: SNB-19; test: Growth inhibition of human SNB19 cells assessed as cell growth at 5X10'-6 M after 48 hrs by sulforhodamine B assay; type: functional; details: SNB-19, 48 h, read-out: Activity
[16] = tested on: SF-539; test: Growth inhibition of human SF539 cells assessed as cell growth at 5X10'-6 M after 48 hrs by sulforhodamine B assay; type: functional; details: SF-539, 48 h, read-out: Activity
[17] = tested on: TK-10; test: Growth inhibition of human TK10 cells after 48 hrs by sulforhodamine B assay; type: functional; details: TK-10, 48 h; for CC50: read-out: LC50 (the source's name)
[18] = Growth inhibition of human NCI-ADR-RES cells after 48 hrs by sulforhodamine B assay; type: functional; details: for CC50: read-out: LC50 (the source's name)
[19] = tested on: OVCAR-3; test: Growth inhibition of human OVCAR3 cells after 48 hrs by sulforhodamine B assay; type: functional, cell-based; details: OVCAR-3, 48 h; for CC50: read-out: LC50 (the source's name)
[20] = tested on: SK-MEL-5; test: Growth inhibition of human SK-MEL-5 cells after 48 hrs by sulforhodamine B assay; type: functional; details: SK-MEL-5, 48 h
[21] = tested on: CCRF-CEM; test: Growth inhibition of human CCRF-CEM cells assessed as cell growth at 10 uM after 48 hrs by sulforhodamine B assay; type: functional; details: read-out: Activity
[22] = tested on: HL-60(TB); test: Growth inhibition of human HL-60(TB) cells assessed as cell growth at 10 uM after 48 hrs by sulforhodamine B assay; type: functional; details: HL-60, 48 h, read-out: Activity
[23] = Growth inhibition of human HCC2998 cells assessed as cell growth at 5X10'-7 M after 48 hrs by sulforhodamine B assay; type: functional; details: HCC 2998, 48 h, read-out: Activity
[24] = tested on: NCI-H460; test: Growth inhibition of human NCI-H460 cells assessed as cell growth at 5X10'-7 M after 48 hrs by sulforhodamine B assay; type: functional; details: NCI-H460, 48 h, read-out: Activity
[25] = tested on: HOP-62; test: Growth inhibition of human HOP62 cells assessed as cell growth at 5X10'-7 M after 48 hrs by sulforhodamine B assay; type: functional; details: HOP-62, 48 h, read-out: Activity
[26] = tested on: SK-MEL-5; test: Growth inhibition of human SK-MEL-5 cells assessed as cell growth at 5X10'-8 M after 48 hrs by sulforhodamine B assay; type: functional; details: SK-MEL-5, 48 h, read-out: Activity
[27] = tested on: SF-539; test: Growth inhibition of human SF539 cells assessed as cell growth at 5X10'-8 M after 48 hrs by sulforhodamine B assay; type: functional; details: SF-539, 48 h, read-out: Activity
[28] = tested on: SF-268; test: Growth inhibition of human SF268 cells assessed as cell growth at 5X10'-8 M after 48 hrs by sulforhodamine B assay; type: functional; details: SF-268, 48 h, read-out: Activity
[29] = tested on: OVCAR-4; test: Growth inhibition of human OVCAR4 cells assessed as cell growth at 5X10'-5 M after 48 hrs by sulforhodamine B assay; type: functional; details: OVCAR-4, 48 h, read-out: Activity
[30] = tested on: COLO 205; test: Growth inhibition of human COLO205 cells assessed as cell growth at 5X10'-8 M after 48 hrs by sulforhodamine B assay; type: functional; details: COLO 205, 48 h, read-out: Activity
[31] = tested on: RPMI-8226; test: Growth inhibition of human RPMI8226 cells assessed as cell growth at 5X10'-8 M after 48 hrs by sulforhodamine B assay; type: functional; details: RPMI-8226, 48 h, read-out: Activity
[32] = tested on: BT-549; test: Growth inhibition of human BT549 cells assessed as cell growth at 5X10'-9 M after 48 hrs by sulforhodamine B assay; type: functional; details: BT-549, 48 h, read-out: Activity
[33] = tested on: TK-10; test: Growth inhibition of human TK10 cells assessed as cell growth at 5X10'-9 M after 48 hrs by sulforhodamine B assay; type: functional; details: TK-10, 48 h, read-out: Activity
[34] = tested on: RXF 393; test: Growth inhibition of human RXF393 cells assessed as cell growth at 5X10'-9 M after 48 hrs by sulforhodamine B assay; type: functional; details: RXF 393, 48 h, read-out: Activity
[35] = tested on: SF-295; test: Growth inhibition of human SF295 cells assessed as cell growth at 5X10'-9 M after 48 hrs by sulforhodamine B assay; type: functional; details: SF-295, 48 h, read-out: Activity

COc1cc(-c2nn(-c3cccc(NC(=O)Nc4ccc(Cl)c(Cl)c4)c3)cc2-c2ccncc2)ccc1Cl
growth at 50 µM [1]: -52% | growth at 50 µM [2]: -49% | growth at 50 µM [3]: -42% | growth at 50 µM [4]: -5% | growth at 50 µM [5]: 2% | growth at 5 µM [6]: 2% | growth at 0.005 µM [7]: 111% | growth at 10 µM [8]: 16.8% | GI50 [9]: 1100 nM | TGI [9]: 4480 nM | CC50 [9]: > 50000 nM | GI50 [10]: 388 nM | pIC50 [10]: 6.41 | TGI [10]: 3260 nM | CC50 [10]: > 50000 nM | GI50 [11]: 1660 nM | TGI [11]: > 50000 nM | CC50 [11]: > 50000 nM | growth at 10 µM [12]: -22.8% | growth at 10 µM [13]: -36.6% | growth at 10 µM [14]: 9.61% | growth at 5 µM [15]: 21% | growth at 5 µM [16]: -21% | GI50 [17]: 1430 nM | TGI [17]: 40900 nM | CC50 [17]: > 50000 nM | GI50 [18]: 990 nM | TGI [18]: 4670 nM | CC50 [18]: > 50000 nM | GI50 [19]: 697 nM | pIC50 [19]: 6.15 | TGI [19]: 2270 nM | CC50 [19]: > 50000 nM | GI50 [20]: 741 nM | LC50 (concentration killing 50% of cells) [20]: 3020 nM | TGI [20]: 1490 nM | growth at 10 µM [21]: -7.9% | growth at 10 µM [22]: -18.1% | growth at 0.5 µM [23]: 97% | growth at 0.5 µM [24]: 74% | growth at 0.5 µM [25]: 93% | growth at 0.05 µM [26]: 92% | growth at 0.05 µM [27]: 85% | growth at 0.05 µM [28]: 102% | growth at 50 µM [29]: 5% | growth at 0.05 µM [30]: 112% | growth at 0.05 µM [31]: 92% | growth at 0.005 µM [32]: 104% | growth at 0.005 µM [33]: 100% | growth at 0.005 µM [34]: 97% | growth at 0.005 µM [35]: 93%

COc1cc(-c2nn(-c3cccc(NC(=O)c4cccc(C(F)(F)F)c4)c3)cc2-c2ccncc2)ccc1Cl
growth at 50 µM [1]: 12% | growth at 50 µM [2]: 3% | growth at 50 µM [3]: -26% | growth at 50 µM [4]: 8% | growth at 50 µM [5]: 9% | growth at 5 µM [6]: 13% | growth at 0.005 µM [7]: 89% | growth at 10 µM [8]: 44.7% | GI50 [9]: 2010 nM | TGI [9]: > 50000 nM | CC50 [9]: > 50000 nM | GI50 [10]: 1570 nM | pIC50 [10]: 5.80 | TGI [10]: 26600 nM | CC50 [10]: > 50000 nM | GI50 [11]: 2020 nM | TGI [11]: > 50000 nM | CC50 [11]: > 50000 nM | growth at 10 µM [12]: -42.8% | growth at 10 µM [13]: 34.5% | growth at 10 µM [14]: 36.2% | growth at 5 µM [15]: 28% | growth at 5 µM [16]: -41% | GI50 [17]: 3240 nM | TGI [17]: > 50000 nM | CC50 [17]: > 50000 nM | GI50 [18]: 1090 nM | TGI [18]: 3170 nM | CC50 [18]: > 50000 nM | GI50 [19]: 1200 nM | pIC50 [19]: 5.92 | TGI [19]: 2980 nM | CC50 [19]: > 50000 nM | GI50 [20]: 978 nM | LC50 (concentration killing 50% of cells) [20]: 40600 nM | TGI [20]: 2470 nM | growth at 10 µM [21]: 3.1% | growth at 10 µM [22]: 1.93% | growth at 0.5 µM [23]: 105% | growth at 0.5 µM [24]: 90% | growth at 0.5 µM [25]: 97% | growth at 0.05 µM [26]: 97% | growth at 0.05 µM [27]: 94% | growth at 0.05 µM [28]: 93% | growth at 50 µM [29]: 29% | growth at 0.05 µM [30]: 101% | growth at 0.05 µM [31]: 98% | growth at 0.005 µM [32]: 99% | growth at 0.005 µM [33]: 95% | growth at 0.005 µM [34]: 99% | growth at 0.005 µM [35]: 94%
